Experimental data from the NIST ThermoML archive (doi:10.1021/je034084d).

Settings: for vapor or sublimation pressure: Liquid; for molar volume: Gas, isochoric method

FC(C(F)(F)F)C(F)(F)F [1,1,1,2,3,3,3-heptafluoropropane]
Settings	vapor or sublimation pressure [kPa]
235.07 K	35.5
240.23 K	46.5
245.31 K	59.9
250.44 K	76.3
255.11 K	94.1
260.28 K	117.5
265.66 K	146.4
270.55 K	177.2
275.23 K	211.1
280.19 K	252.4
285.44 K	302.4
290.14 K	353.3
295.27 K	416.1
300.24 K	484.6
305.29 K	562.6
310.37 K	650.5
315.41 K	747.3
320.07 K	845.9
325.19 K	965.7
329.97 K	1088.3
335.04 K	1230.8
339.99 K	1383
345.15 K	1556.8
350.26 K	1744.7
355.11 K	1939
360.18 K	2159.7
365.27 K	2401.5

Settings	molar volume [m3/mol]
293.37 K, 214.8 kPa	0.0106
298.02 K, 297.6 kPa	0.007594
298.06 K, 219 kPa	0.0106
298.58 K, 387 kPa	0.00567
303.22 K, 304.1 kPa	0.007596
303.42 K, 223.7 kPa	0.0106
303.52 K, 484.7 kPa	0.004479
303.65 K, 395.8 kPa	0.005671
308.37 K, 228 kPa	0.0106
308.57 K, 310.7 kPa	0.007598
308.57 K, 562.5 kPa	0.003857
308.67 K, 496.4 kPa	0.00448
308.69 K, 404.7 kPa	0.005672
313.63 K, 507.6 kPa	0.004481
313.69 K, 413.2 kPa	0.005673
314.14 K, 232.7 kPa	0.01061
314.16 K, 317.9 kPa	0.0076
314.22 K, 577.9 kPa	0.003858
318.62 K, 518.9 kPa	0.004482
318.66 K, 421.6 kPa	0.005675
319.44 K, 237.1 kPa	0.01061
319.6 K, 324.5 kPa	0.007601
319.97 K, 593.4 kPa	0.003859
323.74 K, 530.4 kPa	0.004483
323.82 K, 430.2 kPa	0.005676
324.15 K, 241.1 kPa	0.01061
324.21 K, 329.9 kPa	0.007603
324.39 K, 605.1 kPa	0.003859
328.01 K, 244.4 kPa	0.01061
328.19 K, 334.6 kPa	0.007604
328.2 K, 614.9 kPa	0.00386
328.46 K, 540.6 kPa	0.004484
328.9 K, 438.8 kPa	0.005677
333.39 K, 248.8 kPa	0.01062
333.4 K, 551.4 kPa	0.004485
333.62 K, 341.1 kPa	0.007606
333.92 K, 629.9 kPa	0.003861
334.02 K, 447.3 kPa	0.005679
338.69 K, 642 kPa	0.003862
338.92 K, 253.5 kPa	0.01062
338.96 K, 347.5 kPa	0.007608
338.96 K, 563.3 kPa	0.004486
339.15 K, 455.7 kPa	0.00568
343.8 K, 257.7 kPa	0.01062
343.94 K, 655.2 kPa	0.003863
343.99 K, 353.6 kPa	0.00761
344.11 K, 574.3 kPa	0.004487
344.27 K, 464.1 kPa	0.005681
348.97 K, 359.5 kPa	0.007611
349.04 K, 261.8 kPa	0.01062
349.14 K, 668.4 kPa	0.003864
349.17 K, 585 kPa	0.004488
349.21 K, 472.1 kPa	0.005682
353.32 K, 364.5 kPa	0.007613
353.39 K, 679.1 kPa	0.003864
353.64 K, 265.6 kPa	0.01063
354.39 K, 596 kPa	0.004489
354.73 K, 481 kPa	0.005684
